{"source": "ChEMBL document CHEMBL5518193", "about": "“Discovery of N-alkyl-N-benzyl thiazoles as novel TRPC antagonists for the treatment of glioblastoma multiforme” (Eur J Med Chem, 2024)", "key": {"[1]": {"assay": "Cmax in BALB/c mouse at 25 mg/kg, ip administered as liposome encapsulated form and measured upto 24 hrs by LC-MS/MS analysis", "type": "ADME, organism-based", "details": "in vivo"}, "[2]": {"biological_target": "T1, Short transient receptor potential channel 5 (Homo sapiens, UniProt Q9UL62)", "T1 sequence (Q9UL62 whole entry)": "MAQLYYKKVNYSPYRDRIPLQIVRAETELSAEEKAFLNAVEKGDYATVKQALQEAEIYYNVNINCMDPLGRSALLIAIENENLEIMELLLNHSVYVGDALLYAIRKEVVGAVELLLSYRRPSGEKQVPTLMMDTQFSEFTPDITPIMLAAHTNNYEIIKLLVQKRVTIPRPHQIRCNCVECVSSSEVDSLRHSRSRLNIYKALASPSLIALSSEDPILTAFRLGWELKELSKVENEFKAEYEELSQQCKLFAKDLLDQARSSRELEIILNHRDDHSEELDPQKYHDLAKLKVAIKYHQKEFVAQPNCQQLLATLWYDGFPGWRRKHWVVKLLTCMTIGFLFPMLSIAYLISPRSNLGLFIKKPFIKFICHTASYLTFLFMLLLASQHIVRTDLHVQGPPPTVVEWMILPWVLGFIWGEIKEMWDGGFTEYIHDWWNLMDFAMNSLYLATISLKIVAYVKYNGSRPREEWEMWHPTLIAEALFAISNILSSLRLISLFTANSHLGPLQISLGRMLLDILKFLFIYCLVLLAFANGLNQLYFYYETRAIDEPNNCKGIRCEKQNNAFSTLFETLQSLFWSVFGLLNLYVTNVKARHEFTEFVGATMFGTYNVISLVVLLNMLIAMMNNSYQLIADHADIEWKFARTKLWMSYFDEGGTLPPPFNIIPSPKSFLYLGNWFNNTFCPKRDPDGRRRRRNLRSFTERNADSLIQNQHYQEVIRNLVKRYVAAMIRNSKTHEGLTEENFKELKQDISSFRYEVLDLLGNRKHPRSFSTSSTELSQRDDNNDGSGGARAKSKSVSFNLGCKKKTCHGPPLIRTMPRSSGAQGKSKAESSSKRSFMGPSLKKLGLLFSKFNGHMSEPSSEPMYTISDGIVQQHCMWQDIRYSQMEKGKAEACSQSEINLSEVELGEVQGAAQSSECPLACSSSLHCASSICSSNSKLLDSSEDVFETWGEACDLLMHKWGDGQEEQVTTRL", "assay": "Antagonist activity at human TRPC5 stably expressed in HEK293 cells inhibition of calcium influx by calcium fluorescence assay", "type": "cell-based"}, "[3]": {"assay": "Apparent clearance in BALB/c mouse at 25 mg/kg, ip administered as liposome encapsulated form and measured upto 24 hrs by LC-MS/MS analysis", "type": "ADME, organism-based", "details": "in vivo, read-out: CL(app) (converted)"}, "[4]": {"test_system": "HCT-116", "assay": "Antiproliferative activity against human HCT-116 cells assessed as reduction in cell viability incubated for 72 hrs by MTT assay", "type": "functional, cell-based", "details": "HCT-116, 72 h"}, "[5]": {"assay": "Cmax in BALB/c mouse at 50 mg/kg, ip administered as liposome encapsulated form and measured upto 24 hrs by LC-MS/MS analysis", "type": "ADME, organism-based", "details": "in vivo"}, "[6]": {"assay": "Tmax in BALB/c mouse at 25 mg/kg, ip administered as liposome encapsulated form and measured upto 24 hrs by LC-MS/MS analysis", "type": "ADME, organism-based", "details": "in vivo"}, "[7]": {"biological_target": "T2, Short transient receptor potential channel 6 (Mus musculus) (UniProt Q61143)", "T2 sequence (whole entry)": "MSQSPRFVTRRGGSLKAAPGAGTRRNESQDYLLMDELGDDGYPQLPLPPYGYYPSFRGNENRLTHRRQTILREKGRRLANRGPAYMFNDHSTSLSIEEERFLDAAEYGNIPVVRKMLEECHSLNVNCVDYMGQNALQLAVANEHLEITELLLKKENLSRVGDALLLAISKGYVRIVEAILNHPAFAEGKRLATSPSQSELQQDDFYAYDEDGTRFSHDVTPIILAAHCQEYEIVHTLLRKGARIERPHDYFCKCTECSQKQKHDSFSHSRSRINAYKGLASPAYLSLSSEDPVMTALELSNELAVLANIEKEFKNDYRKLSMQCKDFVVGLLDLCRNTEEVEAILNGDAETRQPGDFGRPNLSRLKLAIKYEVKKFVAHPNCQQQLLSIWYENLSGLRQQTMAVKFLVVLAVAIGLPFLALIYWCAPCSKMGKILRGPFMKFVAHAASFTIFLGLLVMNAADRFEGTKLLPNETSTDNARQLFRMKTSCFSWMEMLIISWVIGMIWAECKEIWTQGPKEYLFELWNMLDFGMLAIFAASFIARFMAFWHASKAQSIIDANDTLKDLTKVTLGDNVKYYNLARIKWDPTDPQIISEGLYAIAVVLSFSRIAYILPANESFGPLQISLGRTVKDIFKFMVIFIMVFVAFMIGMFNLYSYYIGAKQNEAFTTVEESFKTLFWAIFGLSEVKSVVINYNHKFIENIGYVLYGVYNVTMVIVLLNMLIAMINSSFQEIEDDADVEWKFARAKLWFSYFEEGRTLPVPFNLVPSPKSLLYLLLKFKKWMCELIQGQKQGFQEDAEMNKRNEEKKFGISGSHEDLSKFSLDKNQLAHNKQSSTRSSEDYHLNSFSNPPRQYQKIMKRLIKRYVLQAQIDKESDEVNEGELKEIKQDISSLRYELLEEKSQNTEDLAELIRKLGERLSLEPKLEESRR", "assay": "Antagonist activity at mouse TRPC6 stably expressed in HEK293 cells assessed as inhibition of calcium influx at 10 uM by calcium fluorescence assay relative to control", "type": "cell-based", "details": "filed as antagonist"}, "[8]": {"assay": "Apparent clearance in BALB/c mouse at 12.5 mg/kg, ip administered as liposome encapsulated form and measured upto 24 hrs by LC-MS/MS analysis", "type": "ADME, organism-based", "details": "in vivo, read-out: CL(app) (converted)"}, "[9]": {"assay": "Selectivity index, ratio of IC50 for human A549 cells to IC50 for human U87 cells", "type": "functional"}, "[10]": {"test_system": "U-87 MG", "assay": "Antitumor activity against human U87 cells xenografted in BALB/c nude mouse assessed as tumor growth inhibition at 12.5 mg/kg/day administered as liposome encapsulated form for 15 days and measured every 3 days by vernier caliper", "type": "functional, U-87MG ATCC", "details": "360 h, time 15 day, read-out: TGI"}, "[11]": {"biological_target": "T3, Short transient receptor potential channel 6 (Mus musculus, UniProt Q61143)", "T3 sequence (Q61143 whole entry)": "T2 sequence (whole entry)", "assay": "Antagonist activity at mouse TRPC6 stably expressed in HEK293 cells inhibition of calcium influx by calcium fluorescence assay", "type": "cell-based"}, "[12]": {"assay": "Cmax in BALB/c mouse at 12.5 mg/kg, ip administered as liposome encapsulated form and measured upto 24 hrs by LC-MS/MS analysis", "type": "ADME, organism-based", "details": "in vivo"}, "[13]": {"test_system": "U-87 MG", "assay": "Antiproliferative activity against human U87 cells assessed as reduction in cell viability incubated for 72 hrs by MTT assay", "type": "functional, cell-based, U-87MG ATCC"}}}
{"smiles": "NCCN(Cc1ccc2ccccc2c1)c1nc(C(=O)Nc2ccc(O)cc2)cs1", "values": [{"measurement": "Cmax", "setting": "[1]", "value": 1220, "unit": "ng/mL"}, {"measurement": "IC50", "setting": "[2]", "value": 7.6, "unit": "µM"}, {"measurement": "CL/F", "setting": "[3]", "value": 60.2, "unit": "mL/min/kg"}, {"measurement": "IC50", "setting": "[4]", "value": 9.8, "unit": "µM"}, {"measurement": "Cmax", "setting": "[5]", "value": 2910, "unit": "ng/mL"}, {"measurement": "Tmax", "setting": "[6]", "value": 4, "unit": "h"}, {"measurement": "inhibition", "setting": "[7]", "value": 100, "unit": "%"}, {"measurement": "CL/F", "setting": "[8]", "value": 74.6, "unit": "mL/min/kg"}, {"measurement": "Ratio IC50", "setting": "[9]", "value": 2}, {"measurement": "inhibition in vivo at 12.5 mg/kg/day", "setting": "[10]", "value": 36.3, "unit": "%"}, {"measurement": "IC50", "setting": "[11]", "value": 2.9, "unit": "µM"}, {"measurement": "Cmax", "setting": "[12]", "value": 288, "unit": "ng/mL"}, {"measurement": "IC50", "setting": "[13]", "value": 5.7, "unit": "µM"}]}
